pIC50: −log10 of the molar value.
The compounds below were run against Integrin alpha-IIb/beta-3 (Homo sapiens, UniProt P05106+P08514) (assay: Inhibition of glycoprotein IIb/III integrin mediated fibrinogen binding to activated platelets).
Assay type: functional

Sequence of Integrin alpha-IIb/beta-3 (P05106 27-788 limits assumed): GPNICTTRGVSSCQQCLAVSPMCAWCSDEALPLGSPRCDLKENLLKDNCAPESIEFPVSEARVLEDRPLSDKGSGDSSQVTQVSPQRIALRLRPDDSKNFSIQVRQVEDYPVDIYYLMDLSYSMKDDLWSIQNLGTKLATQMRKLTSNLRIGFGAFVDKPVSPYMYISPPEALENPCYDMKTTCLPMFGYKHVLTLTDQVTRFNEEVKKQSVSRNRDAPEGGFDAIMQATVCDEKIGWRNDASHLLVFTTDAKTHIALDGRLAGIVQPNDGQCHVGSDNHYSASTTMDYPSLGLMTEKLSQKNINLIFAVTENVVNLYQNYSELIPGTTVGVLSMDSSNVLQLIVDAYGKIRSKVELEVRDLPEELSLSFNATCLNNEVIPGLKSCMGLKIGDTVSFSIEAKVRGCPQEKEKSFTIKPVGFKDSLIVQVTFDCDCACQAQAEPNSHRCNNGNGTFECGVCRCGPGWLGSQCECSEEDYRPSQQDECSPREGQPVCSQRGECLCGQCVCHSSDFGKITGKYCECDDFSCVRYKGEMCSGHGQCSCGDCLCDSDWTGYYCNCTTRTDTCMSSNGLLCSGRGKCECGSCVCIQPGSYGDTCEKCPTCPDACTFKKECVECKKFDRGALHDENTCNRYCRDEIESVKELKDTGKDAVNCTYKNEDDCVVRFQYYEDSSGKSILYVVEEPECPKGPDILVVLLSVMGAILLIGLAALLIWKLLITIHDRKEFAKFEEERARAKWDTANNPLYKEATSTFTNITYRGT
Sequence of Integrin alpha-IIb/beta-3 (P08514 32-887 limits assumed): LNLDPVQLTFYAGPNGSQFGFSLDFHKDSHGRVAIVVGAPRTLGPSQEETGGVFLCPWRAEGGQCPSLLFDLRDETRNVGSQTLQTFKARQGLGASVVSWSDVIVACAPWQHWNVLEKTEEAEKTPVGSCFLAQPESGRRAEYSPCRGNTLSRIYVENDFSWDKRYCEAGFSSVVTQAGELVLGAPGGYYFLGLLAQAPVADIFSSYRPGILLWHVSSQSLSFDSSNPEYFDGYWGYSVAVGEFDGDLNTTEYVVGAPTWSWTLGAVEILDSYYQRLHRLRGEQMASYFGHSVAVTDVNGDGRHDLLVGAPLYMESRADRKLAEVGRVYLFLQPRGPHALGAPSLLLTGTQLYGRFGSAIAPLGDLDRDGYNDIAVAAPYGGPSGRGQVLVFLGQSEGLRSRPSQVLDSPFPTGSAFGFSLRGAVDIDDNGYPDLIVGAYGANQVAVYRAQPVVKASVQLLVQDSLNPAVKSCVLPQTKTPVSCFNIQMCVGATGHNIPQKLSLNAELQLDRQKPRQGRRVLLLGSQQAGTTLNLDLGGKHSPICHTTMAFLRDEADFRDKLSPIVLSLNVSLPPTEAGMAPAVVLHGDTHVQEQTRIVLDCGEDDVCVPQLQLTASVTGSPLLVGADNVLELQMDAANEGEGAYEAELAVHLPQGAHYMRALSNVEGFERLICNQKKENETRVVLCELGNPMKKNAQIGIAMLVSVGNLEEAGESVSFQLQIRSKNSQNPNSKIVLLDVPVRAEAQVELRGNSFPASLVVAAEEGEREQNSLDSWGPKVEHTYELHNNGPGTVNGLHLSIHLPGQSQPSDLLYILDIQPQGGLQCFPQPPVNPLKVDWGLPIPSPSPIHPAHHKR
Sequence of Integrin alpha-IIb/beta-3 (P08514 891-1039 limits assumed): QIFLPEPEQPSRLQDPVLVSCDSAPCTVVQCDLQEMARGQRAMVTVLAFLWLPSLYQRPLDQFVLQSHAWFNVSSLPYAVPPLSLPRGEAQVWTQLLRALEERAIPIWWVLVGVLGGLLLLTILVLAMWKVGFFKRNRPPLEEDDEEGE

Structure (SMILES)	pIC50
NCCCCCCC(=O)NCC(=O)NC[C@@H](NS(=O)(=O)c1ccccc1)C(=O)O	6.42
O=C(O)CCNC(=O)c1ccc(N2CCNCC2)cc1	3.64
NCCCCCC(=O)NCC(=O)NC[C@@H](NS(=O)(=O)c1ccccc1)C(=O)O	5.55
NCCCC(=O)NCC(=O)NC[C@@H](NS(=O)(=O)c1ccccc1)C(=O)O	< 4.52
NCCCc1ccc(C(=O)NC[C@H](NS(=O)(=O)c2ccccc2)C(=O)O)cc1	6.57
NCCCCC(=O)NCC(=O)NC[C@@H](NS(=O)(=O)c1ccccc1)C(=O)O	4.54
NCCc1ccc(C(=O)NC[C@H](NS(=O)(=O)c2ccccc2)C(=O)O)cc1	5.31
NCCOc1cccc(C(=O)NC[C@H](NS(=O)(=O)c2ccccc2)C(=O)O)c1	5.04

Stronger by pIC50, values ahead:

pIC50	Structure (SMILES)
6.89	O=C(NC[C@H](NS(=O)(=O)c1ccccc1)C(=O)O)c1ccc(CCC2CCCCN2)cc1 (some centres undefined)
6.96	NCCOc1ccc(C(=O)NC[C@H](NS(=O)(=O)c2ccccc2)C(=O)O)cc1
7.26	NCCCOc1ccc(C(=O)NC[C@H](NS(=O)(=O)c2ccccc2)C(=O)O)cc1
7.47	O=C(NC[C@H](NS(=O)(=O)c1ccccc1)C(=O)O)c1ccc(CN2CCNCC2)cc1
7.64	NCCCCOc1ccc(C(=O)NC[C@H](NS(=O)(=O)c2ccccc2)C(=O)O)cc1
7.89	NCCCCCOc1ccc(C(=O)NC[C@H](NS(=O)(=O)c2ccccc2)C(=O)O)cc1

Source: ChEMBL document CHEMBL1132685, “Nonpeptide glycoprotein IIB/IIIA inhibitors. 19. A new design paradigm employing linearly minimized, centrally constrained, exosite inhibitors” (Bioorg Med Chem Lett, 1999)
